Where two headings read alike, the source gives them in different places.
Tests used:
SARS-CoV-2 [1] = assay: microbe, parasite or virus in culture; type: cell-based; conditions: for IC50 (half-maximal inhibitory concentration), DYRA / IC50: Calu-3 cells, SARS-CoV-2 lineage B.1, 48h, DYRA; for IC50: read-out: IC50 (half-maximal inhibitory concentration), DYRA
SARS-CoV-2 [2] = type: cell-based; conditions: for IC50 (half-maximal inhibitory concentration), SYRA: DYRA supernatants on VERO E6 cells, 24 h
Calu-3 cells = assay: Cytotoxicity, CellTiter-Glo 2.0 Luminescent Cell Viability Assay; conditions: read-out: CC50 (half-maximal cytotoxic concentration), 48h exposure
in vitro = conditions: human
Huh-7 cells = test system: Huh-7 cells; design: method as in PMID 32442105; conditions: cited from earlier work
SARS-CoV-2 [3] = test system: SARS-CoV-2; design: method as in PMID 32442105; conditions: Huh-7 cells; viral RNA in cell supernatant; cited from earlier work

For `CS(C)=O.[Cl-].[Cl-].[Cl-].[Cl-].[Ru+3].c1c[nH+]c[nH]1.c1c[nH]cn1` [NAMI-A], the “IC50 (half-maximal inhibitory concentration), DYRA” value (SARS-CoV-2 [1]) was “Not active ^3” and the “IC50 (half-maximal inhibitory concentration), SYRA” value (SARS-CoV-2 [2]) was “Not active ^3”.
In the case of `[Cl][Sb]([Cl])[Cl]` [SbCl3, antimony trichloride], the IC50 (SARS-CoV-2 [1]) is reported as 31.1 ± 15.3 µM and the CC50 (Calu-3 cells) is reported as 200 µM.
With `CC[P](CC)(CC)[Au][I]` [Au(Pet3)I] the “IC50 (half-maximal inhibitory concentration), DYRA” value (SARS-CoV-2 [1]) was “Not active ^3”, the CC50 (Calu-3 cells) was 12 µM and the “IC50 (half-maximal inhibitory concentration), SYRA” value (SARS-CoV-2 [2]) was “Not active ^3”.
For `CCOC(=O)CN(C)C1=[S+][Au-]([Br])([Br])[S]1` [AuL12], the “IC50 (half-maximal inhibitory concentration), DYRA” value (SARS-CoV-2 [1]) was “Not active ^3”, the CC50 (Calu-3 cells) was 19 µM and the “IC50 (half-maximal inhibitory concentration), SYRA” value (SARS-CoV-2 [2]) was “Not active ^3”.
With `CCC(CC)COC(=O)[C@H](C)N[P@](=O)(OC[C@H]1O[C@@](C#N)(c2ccc3c(N)ncnn23)[C@H](O)[C@@H]1O)Oc1ccccc1` [Remdesivir] the “Selectivity Index” value (SARS-CoV-2 [1]; CC50/IC50 ratio, IC50 from DYRA) was 485, the IC50 (SARS-CoV-2 [1]; Severe acute respiratory syndrome coronavirus 2) was 0.2 ± 0.05 µM and the CC50 (in vitro) was 97 µM.
`Cl.[Cl-].[Cl-].[Cl-].[Ru+3].c1c[nH]cn1.c1c[nH]cn1` [NAMI-A] gave a CC50 (Calu-3 cells) of over 200 µM.
For `[Cl-].[Cl-].[Ti+4].c1cc[cH-]c1.c1cc[cH-]c1` [TiCp2Cl2, Titanocene dichloride], the CC50 (Calu-3 cells) was over 200 µM and the IC50 (SARS-CoV-2 [2]; read-out: IC50 (half-maximal inhibitory concentration), SYRA) was 47.3 µM.
`Cl.[Cl-].[Cl-].[Cl-].[Ru+3].c1ccc2[nH]ncc2c1.c1ccc2[nH]ncc2c1.c1ccc2[nH]ncc2c1` [KP1019] showed an IC50 (SARS-CoV-2 [1]) of 8.8 ± 1.5 µM and a CC50 (Calu-3 cells) of 60 µM.
With `CC(=O)OC[C@H]1O[C@@H]([S-])[C@H](OC(C)=O)[C@@H](OC(C)=O)[C@@H]1OC(C)=O.CCP(CC)CC.[Au+]` [Auranofin] the “IC50 (half-maximal inhibitory concentration), DYRA” value (SARS-CoV-2 [1]) was “Not active ^3”, the CC50 (Calu-3 cells) was 3.7 µM and the “IC50 (half-maximal inhibitory concentration), SYRA” value (SARS-CoV-2 [2]) was “Not active ^3”. For the same molecule, the CC50 (Huh-7 cells) was 5.7 µM and the IC50 (SARS-CoV-2 [3]) was 1.4 µM.

Source: PMC8699537, “In Vitro Anti-SARS-CoV-2 Activity of Selected Metal Compounds and Potential Molecular Basis for Their Actions Based on Computational Study” (Biomolecules, 2021)
